Each structure is given as a SMILES string.

This data set can be described thus: Human HepG2 cell viability assay in 384 well format. Format: toxicity, cell-based. Also on record: dose 125 nL, time 70.5 hour; concentration not given beside the values. The following applies: HepG2 cells, read-out: Inhibition.
In the case of `Fc1ccc(C2CCCN2Cc2nc(Cc3ccccc3F)no2)cc1` (centres undefined), the cytotoxicity at 70.5 h was 0.991%.

Consider `COCCN(Cc1cnn(C)c1)C(=O)C1CCCN(C2CCOCC2)C1` (centres undefined), for which the cytotoxicity at 70.5 h is -12.6%.

On to `CCc1ncc(C(=O)N2CCCN(C3CCCCC3)CC2)cn1`, for which the cytotoxicity at 70.5 h is 10.7%.

As to `CC(C)c1noc(C2CCCN2S(=O)(=O)Cc2ccc(F)cc2)n1` (centres undefined), the cytotoxicity at 70.5 h was determined as 0.0647%.

As for `CN(Cc1ccn[nH]1)C(=O)CCC(=O)NC1CCCC1`, the cytotoxicity at 70.5 h was -9.97%.

Turning to `Cc1nc(C2CCNCC2)cc(N2CCOc3ccccc3C2)n1`, the cytotoxicity at 70.5 h is -4.26%.

As to `CCCn1cc(C(=O)N2CCCC(c3nccn3CCOC)C2)c(C)n1` (centres undefined), the cytotoxicity at 70.5 h is 1.39%.

`COCCN(C)C[C@@H]1CN(C(=O)c2ccc(SC)cc2)C[C@@H]1CO`: the cytotoxicity at 70.5 h was determined as 12.6%.

In the case of `CC(C)N1CCC(CC(=O)NC(C(=O)O)c2cc(F)ccc2F)CC1` (centres undefined), the cytotoxicity at 70.5 h is -16.6%.

Regarding `COc1ccccc1OC1CN(C(=O)CN(C)Cc2ccncc2)C1`, the cytotoxicity at 70.5 h was -14.2%.

Turning to `CSCc1noc(-c2nc3c([nH]2)CCCNC3=O)n1`, the cytotoxicity at 70.5 h was -4.67%.

On to `CN1[C@H]2CC[C@@H]1CN(C(=O)c1nnc3n1CCCC3)CC2`, for which the cytotoxicity at 70.5 h stood at 12.6%.

With `CCOC(=O)c1coc(N2CCN(Cc3cc(C)cc(C)c3)C(=O)C2)n1`, the cytotoxicity at 70.5 h is -5.18%.

On to `CN(Cc1cc(-c2cccnc2)no1)C(=O)[C@@H]1CSCN1C`, for which the cytotoxicity at 70.5 h is -8.97%.

As for `O=C(c1cccc(Cl)c1)C1CCCN(c2nnc(C3CCC3)o2)C1` (centres undefined), the cytotoxicity at 70.5 h turned out to be 5.93%.

Turning to `Cc1csc(CN(C)CCOc2ccccc2)n1`, the cytotoxicity at 70.5 h was determined as 20.8%.

For `Cc1ccccc1CN(CCN(C)C)Cc1ncc[nH]1`, the cytotoxicity at 70.5 h is -7.18%.

In the case of `Cc1ncsc1CCC(=O)NCc1cc2n(n1)CCNC2`, the cytotoxicity at 70.5 h was -8.17%.

With `CC(C)Oc1cc(N2CCC3(CC2)[C@H](O)C[C@@H]3O)nc(N)n1`, the cytotoxicity at 70.5 h is -1.26%.

With `CN1CCC(c2nnc(CN3CCCCC3)n2C)CC1`, the cytotoxicity at 70.5 h is -9.09%.

As to `Cc1nc(C)n(CC(C)C(=O)N2CCC(N3CCC(O)CC3)CC2)n1` (centres undefined), the cytotoxicity at 70.5 h is -3.14%.

`CC(=O)c1cc(CN2C[C@@H](NS(=O)(=O)N(C)C)[C@H](C(C)C)C2)cs1`: the cytotoxicity at 70.5 h is 7.82%.

In the case of `CCc1cc(NCC(O)CN2CCCCC2)ncn1` (centres undefined), the cytotoxicity at 70.5 h is -4.61%.

`Nc1nc(CNc2nccc(CCC(F)(F)F)n2)cs1`: the cytotoxicity at 70.5 h was -7.96%.

`N[C@@H]1CCN(Cc2ccc(-c3nc(-c4cccnc4)cc(=O)[nH]3)cc2)C1`: the cytotoxicity at 70.5 h was -10.8%.

In the case of `O=C(c1cnn2ccccc12)N1CCCC(OCc2ccccn2)C1` (centres undefined), the cytotoxicity at 70.5 h was -6.94%.

For `Cc1cc2nc(C(C)C)cc(N(C)CC3CCCN3C)n2n1` (centres undefined), the cytotoxicity at 70.5 h was -10.7%.

As for `CNc1ccnc(N2C[C@@H](C)[C@](O)(C3CC3)C2)n1`, the cytotoxicity at 70.5 h is -3.1%.

As to `Cn1cnnc1CN1CCC2(CCCN(C3CCCC3)C2=O)C1` (centres undefined), the cytotoxicity at 70.5 h came to 1.29%.

For the molecule `CCN(C)C(=O)[C@H]1C[C@@](CC(C)C)(C(=O)OC)N(C)[C@H]1c1cccnc1`, the cytotoxicity at 70.5 h was -3.05%.

In the case of `COCCC1(CO)CCCN(Cc2ccc(C(F)(F)F)nc2)C1` (centres undefined), the cytotoxicity at 70.5 h is -1.12%.

Consider `CSC(C)CCN1CCCn2nc(CNC(=O)C3CCC3)cc2C1` (centres undefined), for which the cytotoxicity at 70.5 h stood at 0.861%.

Regarding `CC(c1nccs1)n1cc(-c2cc(CN3CCCCC3)cs2)nn1` (centres undefined), the cytotoxicity at 70.5 h is -4.83%.

Take `O=C(CCN1CCCO1)NC1CCCN(CC2CCCCC2)C1` (centres undefined): the cytotoxicity at 70.5 h was -2.41%.

With `O=C(O)c1ccccc1C1CCN(Cc2ccc(-c3cc[nH]n3)o2)C1` (centres undefined), the cytotoxicity at 70.5 h is -2.33%.

Turning to `Cc1cc(C[C@@H]2COC[C@@H]2NC(=O)CNC(=O)N(C)C)on1`, the cytotoxicity at 70.5 h was found to be 9.05%.

Turning to `COc1ccc(C(=O)C2CCCN(c3cc(N)ncn3)C2)c(C)c1` (centres undefined), the cytotoxicity at 70.5 h was -10.4%.

As for `CSCCC(O)C(=O)N1CCN(Cc2cccc(Cl)c2)CC1` (centres undefined), the cytotoxicity at 70.5 h was -12.9%.

For the molecule `CN(Cc1cc(-c2ccccc2)no1)C(=O)CNS(C)(=O)=O`, the cytotoxicity at 70.5 h was 23.3%.

(Values after ChEMBL document CHEMBL3507680, “University of Dundee, Gates Library screen for HepG2 cell viability”.)
